≈ marks a conversion by molar mass, not a printed value. Where two headings read alike, the source gives them in different places.
Key:
[1] = tested on: Staphylococcus aureus ATCC 6538 P FDA 209P; assay: Antimicrobial activity, serial microdilutions, Sa; format: cell-based; conditions: Staphylococcus aureus; for MIC: read-out: Minimum Inhibitory Concentration (MIC); for MBC: read-out: Minimum bactericidal and fungicidal concentrations (MBC, MFC)
Protocol: (§1) The antimicrobial activity of test compounds was determined by serial microdilutions in 96-well plates using Mueller-Hinton broth for bacterial culture and Sabouraud broth for yeast culture. Cultures of Gram-positive bacteria were used in the experiment: Staphylococcus aureus ATCC 6538 P FDA 209P, Bacillus cereus ATCC 10702 NCTC 8035, Enterococcus faecalis ATCC 29212; Gram-negative bacteria: Escherichia coli ATCC 25922, Pseudomonas aeruginosa ATCC 9027; and yeast: Candida albicans ATCC 10231, purchased from the State Collection of Pathogenic Microorganisms and Cell Cultures “SCPM-Obolensk” (Obolensk, Russia). Methicillin-resistant strains of S. aureus (MRSA) were isolated from patients with chronic tonsillitis (MRSA-1) and sinusitis (MRSA-2) in the bacteriological laboratory of the Republican Clinical Hospital (Kazan, Russia). The experiments were carried out in triplicate.

[2] = tested on: Bacillus cereus ATCC 10702 NCTC 8035; assay: Antimicrobial activity, serial microdilutions, Bc; format: cell-based; design: key to Minimum bactericidal and fungicidal concentrations (MBC, MFC): – means non-active; conditions: for MIC / MBC: Bacillus cereus; for MIC: read-out: Minimum Inhibitory Concentration (MIC); for MBC: read-out: Minimum bactericidal and fungicidal concentrations (MBC, MFC)
Protocol: as §1

[3] = tested on: Enterococcus faecalis ATCC 29212; assay: Antimicrobial activity, serial microdilutions, Ef; format: cell-based; design: key to Minimum Inhibitory Concentration (MIC) / Minimum bactericidal and fungicidal concentrations (MBC, MFC): – means non-active; conditions: for MIC / MBC: Enterococcus faecalis; for MIC: ATCC29212, read-out: Minimum Inhibitory Concentration (MIC); for MBC: ATCC29212, read-out: Minimum bactericidal and fungicidal concentrations (MBC, MFC)
Protocol: as §1

[4] = tested on: MRSA-1; assay: Antimicrobial activity, serial microdilutions, MRSA-1; format: cell-based, S. aureus; design: key to Minimum Inhibitory Concentration (MIC) / Minimum bactericidal and fungicidal concentrations (MBC, MFC): – means non-active; conditions: for MIC / MBC: Staphylococcus aureus; for MIC: read-out: Minimum Inhibitory Concentration (MIC); for MBC: read-out: Minimum bactericidal and fungicidal concentrations (MBC, MFC)
Protocol: as §1

[5] = tested on: MRSA-2; assay: Antimicrobial activity, serial microdilutions, MRSA-2; format: cell-based, S. aureus; conditions: Staphylococcus aureus; for MIC: read-out: Minimum Inhibitory Concentration (MIC); for MBC: read-out: Minimum bactericidal and fungicidal concentrations (MBC, MFC)
Protocol: as §1

[6] = tested on: Escherichia coli ATCC 25922; assay: Antimicrobial activity, serial microdilutions, Ec; format: cell-based; design: key to Minimum Inhibitory Concentration (MIC) / Minimum bactericidal and fungicidal concentrations (MBC, MFC): – means non-active; conditions: for MIC / MBC: Escherichia coli; for MIC: ATCC25922, read-out: Minimum Inhibitory Concentration (MIC); for MBC: ATCC25922, read-out: Minimum bactericidal and fungicidal concentrations (MBC, MFC)
Protocol: as §1

[7] = tested on: Pseudomonas aeruginosa ATCC 9027; assay: Antimicrobial activity, serial microdilutions, Pa; format: cell-based; design: key to Minimum Inhibitory Concentration (MIC) / Minimum bactericidal and fungicidal concentrations (MBC, MFC): – means non-active; conditions: for MIC / MBC: Pseudomonas aeruginosa; for MIC: ATCC9027, read-out: Minimum Inhibitory Concentration (MIC); for MBC: ATCC9027, read-out: Minimum bactericidal and fungicidal concentrations (MBC, MFC)
Protocol: as §1

[8] = tested on: Candida albicans ATCC 10231; assay: Antimicrobial activity, serial microdilutions, Ca; format: cell-based; design: key to Minimum Inhibitory Concentration (MIC) / Minimum bactericidal and fungicidal concentrations (MBC, MFC): – means non-active; conditions: for Minimum Inhibitory Concentration (MIC) / Minimum bactericidal and fungicidal concentrations (MBC, MFC): Ca
Protocol: as §1

[9] = tested on: M-HeLa
[10] = tested on: MCF-7
[11] = tested on: HuTu 80
[12] = tested on: PANC-1
[13] = tested on: PC3
[14] = tested on: Hep G2
[15] = tested on: SK-OV-3
[16] = tested on: DU-145
[17] = tested on: M-HeLa; assay: cells; conditions: Homo sapiens, 48 h, read-out: Cytotoxic Effects (IC50)
[18] = tested on: MCF-7; assay: cells; conditions: Homo sapiens, MCF7, 48 h, read-out: Cytotoxic Effects (IC50)
[19] = tested on: HuTu 80; assay: cells; conditions: Homo sapiens, HuTu80, 48 h, read-out: Cytotoxic Effects (IC50)
[20] = tested on: PANC-1; assay: cells; conditions: Homo sapiens, PANC-1, 48 h, read-out: Cytotoxic Effects (IC50)
[21] = tested on: A549; assay: cells; conditions: Homo sapiens, A549, 48 h, read-out: Cytotoxic Effects (IC50)
[22] = tested on: PC3; assay: cells; conditions: Homo sapiens, PC-3, 48 h, read-out: Cytotoxic Effects (IC50), PC3, MTT assay, 48 h
[23] = tested on: T98G; assay: cells; conditions: Homo sapiens, 48 h, read-out: Cytotoxic Effects (IC50)
[24] = tested on: Hep G2; assay: cells; conditions: Homo sapiens, HepG2, 48 h, read-out: Cytotoxic Effects (IC50)
[25] = tested on: SK-OV-3; assay: cells; conditions: Homo sapiens, SK-OV-3, 48 h, read-out: Cytotoxic Effects (IC50)
[26] = tested on: DU-145; assay: cells; conditions: Homo sapiens, DU-145, 48 h, read-out: Cytotoxic Effects (IC50), DU-145, MTT assay, 48 h
[27] = tested on: A549; conditions: reference normal cell line not marked at the place (ns cells)
[28] = tested on: T98G
[29] = calculated relative to the cell line WI38 (a)
[30] = reference normal cell line not marked at the place (ns cells)
[31] = calculated relative to the cell line Chang liver (b)

Row | Compound | MIC [1] [µM] | MBC [1] [µM] | MIC ([2]; Bc) [µM] | MBC [2] [µM] | MIC [3] [µM] | MIC [5] [µM] | MBC [5] [µM] | MIC [6] [µM] | MBC [6] [µM] | Minimum Inhibitory Concentration (MIC) [8] | MIC [4] [µM] | MBC [4] [µM] | Minimum bactericidal and fungicidal concentrations (MBC, MFC) [8] | IC50 [17] [µM] | IC50 [18] [µM] | IC50 [19] [µM] | IC50 [20] [µM] | IC50 [21] [µM] | IC50 [22] [µM] | IC50 [23] [µM] | further results
1 | CCn1cc(C(=O)O)c(=O)c2cc(F)c(N3CCNCC3)cc21 [Norfloxacin, reference compound] | 7.5 ± 0.5 (≈ 2.4 µg/mL) | 7.5 ± 0.6 (≈ 2.4 µg/mL) | 24.4 ± 2.1 (≈ 7.79 µg/mL) | 24.4 ± 2.1 (≈ 7.79 µg/mL) | 24.4 ± 2.2 (≈ 7.79 µg/mL) | 7.5 ± 0.5 (≈ 2.4 µg/mL) | 7.5 ± 0.6 (≈ 2.4 µg/mL) | 4.7 ± 0.02 (≈ 1.5 µg/mL) | 24.4 ± 2.3 (≈ 7.79 µg/mL) | – |  |  |  |  |  |  |  |  |  |  | MBC [3]: 24.4 ± 1.9 µM (≈ 7.79 µg/mL); Minimum Inhibitory Concentration (MIC) [4]: –; Minimum bactericidal and fungicidal concentrations (MBC, MFC) [4]: –; MIC [7]: 12.1 ± 1.1 µM (≈ 3.86 µg/mL); MBC [7]: 49 ± 4.2 µM (≈ 15.6 µg/mL)
2 | CCN(CC)[P+](CCCCCC[P+](N(CC)CC)(N(CC)CC)N(CC)CC)(N(CC)CC)N(CC)CC [compound 9, 1,6-Hexanediyl-bis(hexaethyltriaminophosphonium)dibromide] | 34.3 ± 5.4 | 137 ± 21 | 274 ± 48 |  |  | 34.3 ± 5.3 | 137 ± 21 |  |  | – | 137 ± 19 | 137 ± 18 | – | 31.1 ± 3.9 | 37.8 ± 4.8 | 13.1 ± 1.7 | 39.6 ± 5.1 | > 100 | 34.9 ± 4.5 | > 100 | Minimum bactericidal and fungicidal concentrations (MBC, MFC) ([2]; Bc): –; Minimum Inhibitory Concentration (MIC) [3]: –; Minimum bactericidal and fungicidal concentrations (MBC, MFC) [3]: –; Minimum Inhibitory Concentration (MIC) [6]: –; Minimum bactericidal and fungicidal concentrations (MBC, MFC) [6]: –; Minimum Inhibitory Concentration (MIC) [7]: –; Minimum bactericidal and fungicidal concentrations (MBC, MFC) [7]: –; selectivity index (SI) [9, 29]: 1.5; selectivity index (SI) [10, 29]: 1.2; selectivity index (SI) [11, 29]: 3.5; selectivity index (SI) [12, 29]: 1.2; selectivity index (SI) [13, 29]: 1.3; selectivity index (SI) [14, 30]: ns (ns—no selectivity); selectivity index (SI) [15, 29]: 1.3; selectivity index (SI) [16, 30]: ns (ns—no selectivity); IC50 [24]: 53.9 ± 6.9 µM; IC50 [25]: 36.4 ± 4.7 µM; IC50 [26]: 50.5 ± 6.4 µM
3 | CCCCCCCCC[P+](c1ccccc1)(c1ccccc1)N(CC)CC [6c, (Diethylamino)(nonyl)diphenylphosphonium iodide] | 3.9 ± 0.3 | 125 ± 11 | 1.9 ± 0.1 | > 500 | 31.3 ± 5.4 | 3.9 ± 0.4 | 7.8 ± 0.7 | 500 ± 46 | 500 ± 47 |  | 3.9 ± 0.3 | 62.5 ± 5.4 | – | 0.9 ± 0.07 | 4.2 ± 0.3 | 0.2 ± 0.01 | 1.3 ± 0.1 | 11.4 ± 0.9 | 1 ± 0.08 | 2.4 ± 0.1 | Minimum bactericidal and fungicidal concentrations (MBC, MFC) [3]: –; MIC [7]: 250 ± 21 µM; MBC [7]: 250 ± 21 µM; MIC ([8]; Candida albicans, ATCC10231, read-out: Minimum Inhibitory Concentration (MIC)): 500 ± 47 µM; selectivity index (SI) [10, 29]: 2.0; selectivity index (SI) [11, 29]: 42; selectivity index (SI) [12, 29]: 6.4; selectivity index (SI) [27]: ns (ns—no selectivity); selectivity index (SI) [13, 29]: 8.3; selectivity index (SI) [28, 29]: 3.5; selectivity index (SI) [14, 29]: 1.3; selectivity index (SI) [15, 30]: ns (ns—no selectivity); selectivity index (SI) [16, 29]: 6.4; IC50 [24]: 6.2 ± 0.5 µM; IC50 [25]: 12.7 ± 1.1 µM; IC50 [26]: 1.3 ± 0.1 µM
4 | CCCCCCCCC[P+](N(CC)CC)(N(CC)CC)N(CC)CC [4c, Tris(diethylamino)(nonyl)phosphonium iodide] | 3.9 ± 0.3 | 250 ± 18 | 3.9 ± 0.3 | > 500 | 62.5 ± 5.2 | 7.8 ± 0.6 | 250 ± 20 | 500 ± 48 | 500 ± 48 | – | 3.9 ± 0.4 | 125 ± 10 | – | 1.7 ± 0.1 | 1.9 ± 0.1 | 2.6 ± 0.2 | 1.7 ± 0.1 | 21.1 ± 1.5 | 1.8 ± 0.1 | 3.2 ± 0.2 | MBC [3]: 500 ± 48 µM; Minimum Inhibitory Concentration (MIC) [7]: –; Minimum bactericidal and fungicidal concentrations (MBC, MFC) [7]: –; selectivity index (SI) [9, 31]: 2.8; selectivity index (SI) [10, 31]: 2.5; selectivity index (SI) [11, 31]: 1.8; selectivity index (SI) [12, 31]: 2.8; selectivity index (SI) [27]: ns (ns—no selectivity); selectivity index (SI) [13, 31]: 2.7; selectivity index (SI) [28, 31]: 1.5; selectivity index (SI) [14, 31]: 2.0; selectivity index (SI) [15, 30]: ns (ns—no selectivity); IC50 [24]: 2.4 ± 0.1 µM; IC50 [25]: 12.1 ± 1.1 µM

— PMC10649961, “Novel Mitochondria-Targeted Amphiphilic Aminophosphonium Salts and Lipids Nanoparticles: Synthesis, Antitumor Activity and Toxicity” (Nanomaterials, 2023)
